Experimental data reported in patent US6143726A, “Complexes of N'-dimethylaminoacetylpartricin A dimethylaminoethylamide, or the salts thereof, and cholesterol 3-sulphate” (priority 1996, dated 2000).

Key:
[1] = Precipitation at the site of injection after intramuscular administration and tolerance; assay type: in vivo
[2] = compared with partricin; cited from earlier work
[3] = cited from earlier work
[4] = Acute toxicity test (i.v. administration in mice), LD50 by Probit method; assay type: in vivo; details: i.v. into tail vein, male mice, 15 days observation
Experimental: Groups of 5 […] male mice, of 4 weeks of age and weighing 14-18 g, starved overnight before trial, were treated with serial doses of the SPA-S-753-cholesterol sulphate complex (prepared as described in Example 1) and with the not complexed SPA-S-753 for comparison. The two products, dissolved in 5% glucose solution and diluted to the required concentrations, were injected by i.v. route into a tail vein, at a constant volume of 2 ml/kg and over the time of 30-40 seconds. The animals were then kept under observation for 15 days, while changes in behaviour and mortality were recorded.

[5] = Pharmacokinetics test (i.v.): serum and kidney concentrations, microbiological determination; assay type: in vivo, Sprague-Dawley rats; details: 2 hours after single i.v. dose equivalent to 1.25 mg/kg
Experimental: Two groups of 5 Sprague-Dawley male rats were treated by i.v. route with a single dose equivalent to 1.25 mg/kg of SPA-S-753-cholesterol sulphate complex and of not complexed SPA-S-753 for comparison, with a method similar to that described above. 2 hours following treatments the animals were killed, and the serum and kidneys were collected according to the ordinary procedures. The antibiotic was determined by the microbiological method on the pooled serums and organ homogenates from the 2 groups, the Saccharomyces cerevisiae growth inhibition zones being measured against those produced by antibiotic standard solutions (PYG-agar medium, incubation of 18 h at 30° C.). The antibiotic concentrations found were as follows: 2.6 μg/ml in serum and 4.0 μg/g in the case of SPA-S-753 alone, and 2.4 μg/ml in serum and 0.8 μg/g in the kidneys in the case of SPA-S-753-cholesterol sulphate complex.

Substance: N'-dimethylaminoacetylpartricin A dimethylaminoethylamide diaspartate [SPA-S-753]
- precipitation on intramuscular administration [1]: partial precipitation
- tolerance ([1]; systemic and local, versus uncomplexed SPA-S-753): negative influence on tolerance of the product
- toxicity [2]: definitely much lower than that of partricin
- water-solubility [3]: high water-solubility
- acute toxicity index, lethal dose in 50% of the animals (LD50) [4]: 46 to 64 mg/kg
- antibiotic concentration in kidneys ([5]; organ homogenates): 4.0 µg/g
- antibiotic concentration in serum ([5]; pooled serum): 2.6 µg/mL
